The values below come from patent publication US10888574B2, “Method for suppressing obesity, method for treating obesity, and method for promoting gene expression” (Kinjirushi Co., Ltd., priority 2017, dated 2021).

Test [1] relates to UCP1 gene. Description: Quantitative determination of expression level of UCP1 gene in brown adipocytes (real-time PCR, GAPDH internal standard). It counts as cell-based. As to conditions: rat primary brown adipocytes; for Relative value of UCP1 gene expression, Average: control = 1.00, n=3; for UCP1 gene expression as compared with the control (in words): FIG. 1. How it is done: (§1) In each example, as described below, brown adipocytes were cultured in a test medium to which each of various test substances has been added, and then quantitative determination of expression level of UCP1 gene and quantitative determination of lipid droplets by Oil Red 0 staining were performed.
(§2) Noradrenaline, isovitexin, and isosaponarin were each added to the maintenance medium. The final concentration in each media was set to 1 μmol/L for noradrenaline; 1 mmol/L, 100 μmol/L, and 10 μmol/L for isovitexin; and 1 mmol/L, 100 μmol/L, and 10 μmol/L for isosaponarin.
(§3) The brown adipocytes used in the test were those contained in the rat-derived primary brown adipocyte culture kit (manufactured by Cosmo Bio Co., Ltd., code number: BAT02). Using the above-described growth medium, the brown adipocytes were inoculated in the respective wells of a 24-well plate at a density of 3×10^4 cells/well. The brown adipocytes were cultured at 37° C. with 5% CO2 for 3 days in a CO2 incubator (multi-gas incubator, manufactured by Panasonic Healthcare Holdings Co., Ltd., product number: MCO-19MUVH). Next, the medium in each well was replaced with the differentiation-inducing medium, and culture was performed for 2 days in the CO2 incubator (5% CO2, 37° C.). Then, the medium in each well was replaced with the above-described maintenance medium, and culture was performed for 2 days in the CO2 incubator (5% CO2, 37° C.). Further, the medium in each well was replaced with the above-described maintenance medium again, and the brown adipocytes were cultured for 1 day in the CO2 incubator (5% CO2, 37° C.). Subsequently, analysis of gene expression and evaluation by Oil Red 0 staining were performed as below.
RNAs were recovered from the brown adipocytes using 0.2 mL per well of TRI Reagent (manufactured by Molecular Research Center, Inc., catalog number: TR118). Using 500 ng of each sample RNA, cDNA synthesis was performed using a cDNA synthesis kit (product name: SuperScript [registered trademark] VILO™ cDNA Synthesis Kit, manufactured by Thermo Fisher Scientific Inc., catalog number: 11754050). Real-time PCR was performed using a real-time PCR kit (product name: LightCycler [registered trademark] Taqman [registered trademark] Master, manufactured by Roche Applied Science, catalog number: 4735536) and a real-time PCR device (product name: LigthCycler [registered trademark] 480 System II, manufactured by Roche Diagnostics). Analysis of UCP1 gene expression was performed using GAPDH as an internal standard.
Primers and probes used in the test were as follows: • UCP1 primer, • forward primer: […] (SEQ ID No. 1, synthesized by Sigma-Aldrich Co. LLC), • reverse primer: tggccttcaccttggatct (SEQ ID No. 2, synthesized by Sigma-Aldrich Co. LLC), • probe: Universal ProbeLibrary probe #130 (manufactured by Roche Life Science Co. Ltd.), • GAPDH primer, • forward primer: […] (SEQ ID No. 3, synthesized by Sigma-Aldrich Co. LLC), • reverse primer: […] (SEQ ID No. 4, synthesized by Sigma-Aldrich Co. LLC), and
probe: Universal ProbeLibrary probe #80 (manufactured by Roche Life Science Co. Ltd.).
The number of experiments performed was three. […] The significant difference is indicated as “<0.05” when the significance level of the t-test was 5%, and as “<0.01” when the significance level was 1%.
On the technique in general: Quantitative PCR measures a nucleic acid by following its amplification.

Test [2] deals with brown adipocytes. Description: Quantitative determination of lipid droplets by Oil Red O staining in brown adipocytes. It counts as cell-based, rat. The settings on record: for Quantity of lipid droplets produced, Average: relative absorbance at 540 nm, control = 100, n=3; for Quantity of lipid droplets produced compared with medium without the substance (in words): rat primary brown adipocytes, FIG. 2. As to the method:
as §1, §2, §3
Lipid droplets in the cell cultured as described in the above item (2) were quantitatively determined through the steps below using Lipid Assay Kit (manufactured by Cosmo Bio Co., Ltd., code number: AK09F).
Step 2-1. Fixative solution was prepared by mixing the following ingredients together: • 37% formaldehyde solution (formalin stock solution): 100 mL, • purified water: 900 mL, • sodium dihydrogen phosphate monohydrate (NaH2PO4·H2O): 4 g, and • disodium hydrogen phosphate, anhydrous (Na2HPO4): 6.5 g.
Step 2-2. The culture solution was removed from the well plate subjected to the culture operation in the above “(2) Culture of brown adipocytes”. Then, each well was washed once with 500 μL per well of PBS.
Step 2-3. 500 μL per well of the fixative solution prepared in Step 2-1 was added to each well, and the well plate was left at rest overnight at room temperature.
Step 2-4. After the immobilization, washing of each well with 500 μL per well of purified water was performed.
Step 2-5. Undiluted Oil Red 0 solution in the kit and purified water were mixed together at a ratio of 6:4 (volume ratio) to obtain a mixed solution, and the mixed solution was left at rest at room temperature for 10 to 15 minutes. Then, the mixed solution was filtered through a membrane filter having pores with a pore diameter of 0.5 to 1.0 μm. The filtrate was used as Oil Red 0 solution.
Step 2-6. 500 μL of the above-described Oil Red 0 solution was dispensed into each well, and the well plate was left at rest at room temperature for 15 minutes.
Step 2-7. After that, the Oil Red 0 solution was removed from the well, and each well was washed with purified water three times or more. Such washing was performed thoroughly until the used purified water becomes clear.
Step 2-8. 500 μL of solvent for extraction in the kit was added into the dried well, and pigments were eluted. 0.1 mL of the eluate with the pigments eluted therein was dispensed into each well of a 96-well plate, and absorbance at a wavelength of 540 nm was measured with a micro-plate reader (Infinite [registered trademark] M200 PRO, manufactured by TECAN). […]

Turning to `O=c1cc(-c2ccc(O)cc2)oc2cc(O)c([C@@H]3O[C@H](CO)[C@@H](O)[C@H](O)[C@H]3O)c(O)c12` [Isovitexin], the figures for the “Relative value of UCP1 gene expression, Average” value (from here on “Relative value”) in test [1] (final concentration 10 μmol/L), in test [1] (final concentration 100 μmol/L) and in test [1] (final concentration 1 mmol/L) were 1.30, 1.30 and 1.45, respectively. In addition, in test [1], the “UCP1 gene expression as compared with the control (in words)” value was “significant increase in UCP1 gene expression”. In addition, the entries for the “Quantity of lipid droplets produced, Average” value in test [2] (concentration 10 μmol/L), in test [2] (concentration 100 μmol/L) and in test [2] (concentration 1 mmol/L) were 84.8%, 83.3% and 77.8%, respectively. In test [2], the “Quantity of lipid droplets produced compared with medium without the substance (in words)” value was “quantity of lipid droplets produced was smaller”.
As to `O=c1cc(-c2ccc(OC3OC(CO)C(O)C(O)C3O)cc2)oc2cc(O)c(C3OC(CO)C(O)C(O)C3O)c(O)c12` (centres unmarked) [Isosaponarin], the results for the “Relative value” value in test [1] (final concentration 10 μmol/L), in test [1] (final concentration 100 μmol/L) and in test [1] (final concentration 1 mmol/L) were 1.17, 1.30 and 1.18, respectively. For the same molecule, the “UCP1 gene expression as compared with the control (in words)” value in test [1] is listed as “significant increase in UCP1 gene expression”. Further, the “Quantity of lipid droplets produced, Average” value in test [2] (concentration 10 μmol/L) is given as 104.0%; in test [2] (concentration 100 μmol/L), 97.7%; in test [2] (concentration 1 mmol/L) it was 98.9%. In addition, the “Quantity of lipid droplets produced compared with medium without the substance (in words)” value in test [2] was “quantity of lipid droplets produced was smaller”.
For the molecule `NC[C@H](O)c1ccc(O)c(O)c1` [Noradrenaline, reference compound], in test [1] (final concentration 1 μmol/L), the “Relative value” value stood at 1.38.
